pIC50: −log10 of the molar value.
How the values were obtained:
Assay type in all cases: biochemical
Pim-1 = Pim-1 (Homo sapiens (Human), UniProt P11309); assay: Pim-1 kinase assay; conditions: 1 mM ATP; read-out: PIM1 IC50
Procedure: (§1) Pim-1 and Pim-3 kinase assays—20 μL reactions were run in white 384 well polystyrene plates dotted with 0.8 μL compound/DMSO in the assay buffer (50 mM Tris, pH 7.5, 0.01% Tween-20, 5 mM mgCl2, 0.01% BSA, 5 mM DTT), containing 0.05 μM Biotin-labeled BAD peptide substrate (AnaSpec 62269), 1 mM ATP, and 2.5 pM (Pim-1, Invitrogen PV3503) or 1.25 pM (Pim-3, Millipore 14-738) enzyme for 1 h at 25° C. Reactions were stopped by addition of 10 μL STOP Buffer (150 mM Tris, pH=7.5, 150 mM NaCl, 75 mM EDTA, 0.01% Tween-20, 0.3% BSA,) supplemented with Phospho-Bad (Ser112) Antibody (Cell Signaling 9291) diluted 666-fold, and Streptavidin donor beads (PerkinElmer 6760002) along with Protein-A acceptor beads (PerkinElmer 6760137) at […]. Supplementation of the STOP buffer with beads and stopping the reactions were done under reduced light. Prior to the stopping reactions STOP buffer with beads was preincubated for 1 h in the dark at room temperature. After stopping the reactions, plates were incubated for 1 h in the dark at room temperature before reading on a PHERAstar FS plate reader (BMG Labtech) under reduced light.

Pim-3 = Pim-3 (Homo sapiens (Human), UniProt Q86V86); assay: Pim-3 kinase assay; conditions: 1 mM ATP; read-out: PIM3 IC50
Procedure: as §1

Pim-2 = Pim-2 (Homo sapiens (Human), UniProt Q9P1W9); assay: Pim-2 kinase assay; conditions: 1 mM ATP; read-out: PIM2 IC50
Sequence of Pim-2 (Q9P1W9 whole entry): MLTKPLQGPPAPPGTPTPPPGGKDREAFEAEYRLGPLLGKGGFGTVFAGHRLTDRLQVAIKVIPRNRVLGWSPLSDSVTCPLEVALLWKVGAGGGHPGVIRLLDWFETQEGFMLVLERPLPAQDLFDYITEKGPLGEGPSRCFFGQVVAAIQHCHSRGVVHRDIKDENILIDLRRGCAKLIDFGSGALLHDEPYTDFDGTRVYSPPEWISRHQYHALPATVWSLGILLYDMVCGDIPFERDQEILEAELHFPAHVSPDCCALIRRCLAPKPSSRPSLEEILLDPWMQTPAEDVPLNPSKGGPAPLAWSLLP
Procedure: Pim-2 kinase assay—20 μL reactions were run in white 384 well polystyrene plates dotted with 0.8 μL compound/DMSO in the assay buffer (50 mM Tris, pH 7.5, 0.01% Tween-20, 5 mM mgCl2, 0.01% BSA, 5 mM DTT), containing 0.05 μM Fluorescein-labeled CREBtide peptide substrate (Invitrogen PV3508), 1 mM ATP, and 1 nM enzyme (Invitrogen PV3649) for 2 h at 25° C. Reactions were stopped by addition of 10 μL TR-FRET Dilution Buffer (Invitrogen PV3574) with 30 mM EDTA and 1.5 nM LanthaScreen Tb-CREB pSer133 antibody (Invitrogen PV3566). After 30 min. incubation at room temperature, plates were read on a PHERAstar FS plate reader (BMG Labtech).

Sequence of Pim-1 (P11309 whole entry): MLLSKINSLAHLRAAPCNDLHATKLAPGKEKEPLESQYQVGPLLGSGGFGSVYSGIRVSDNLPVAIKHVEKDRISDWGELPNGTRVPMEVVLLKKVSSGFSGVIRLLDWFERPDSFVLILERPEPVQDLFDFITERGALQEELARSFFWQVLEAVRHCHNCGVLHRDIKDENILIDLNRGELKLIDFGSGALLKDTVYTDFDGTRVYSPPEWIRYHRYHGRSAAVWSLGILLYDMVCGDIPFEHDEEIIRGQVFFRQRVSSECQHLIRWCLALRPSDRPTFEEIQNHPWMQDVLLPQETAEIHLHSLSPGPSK

In the case of `COC[C@H]1CCCN1c1cnc2c(C(=O)Nc3cnccc3[C@@H]3C[C@H](C)C[C@H](N)C3)ccc(F)c2c1` [Example 47, N-(4-((1R,3S,5S)-3-Amino-5-methylcyclohexyl)pyridin-3-yl)-5-fluoro-3-OR)-2-(methoxymethyl)pyrrolidin-1-yl)quinoline-8-carboxamide], the pIC50 (Pim-1) was no less than 8.00, the pIC50 (Pim-3) was no less than 8.00 and the pIC50 (Pim-2) was no less than 7.00.
Compound `COC[C@@H]1CCCN1c1cnc2c(C(=O)Nc3cnccc3[C@@H]3C[C@H](C)C[C@H](N)C3)ccc(F)c2c1` [Example 48, N-(4-((1R,3S,5S)-3-Amino-5-methylcyclohexyl)pyridin-3-yl)-5-fluoro-3-((S)-2-(methoxymethyl)pyrrolidin-1-yl)quinoline-8-carboxamide] has a pIC50 (Pim-1) of no less than 8.00, a pIC50 (Pim-3) of no less than 8.00 and a pIC50 (Pim-2) of 6.00 to 7.00.
Compound `CO[C@@H]1CCN(c2cnc3c(C(=O)Nc4cnccc4[C@@H]4C[C@H](C)C[C@H](N)C4)ccc(F)c3c2)C1` [Example 49, N-(4-((1R,3S,5S)-3-amino-5-methylcyclohexyl)pyridin-3-yl)-5-fluoro-3-((R)-3-methoxypyrrolidin-1-yl)quinoline-8-carboxamide] has a pIC50 (Pim-1) of no less than 8.00, a pIC50 (Pim-3) of no less than 8.00 and a pIC50 (Pim-2) of 6.00 to 7.00.
With `CO[C@H]1CCN(c2cnc3c(C(=O)Nc4cnccc4[C@@H]4C[C@H](C)C[C@H](N)C4)ccc(F)c3c2)C1` [Example 50, N-(4-((1R,3S,5S)-3-Amino-5-methylcyclohexyl)pyridin-3-yl)-5-fluoro-3-((S)-3-methoxypyrrolidin-1-yl)quinoline-8-carboxamide] the pIC50 (Pim-1) was no less than 8.00, the pIC50 (Pim-3) was no less than 8.00 and the pIC50 (Pim-2) was no less than 7.00.
With `COCCN(C)c1cnc2c(C(=O)Nc3cnccc3[C@@H]3C[C@H](C)C[C@H](N)C3)ccc(F)c2c1` [Example 51, N-(4-((1R,3S,5S)-3-Amino-5-methylcyclohexyl)pyridin-3-yl)-5-fluoro-3-((2-methoxyethyl)(methyl)amino)quinoline-8-carboxamide] the pIC50 (Pim-1) was no less than 8.00, the pIC50 (Pim-3) was no less than 8.00 and the pIC50 (Pim-2) was 6.00 to 7.00.
`C[C@@H]1C[C@H](N)C[C@H](c2ccncc2NC(=O)c2ccc(F)c3cc(N[C@@H](C)C4CC4)cnc23)C1` [Example 52, N-(4-((1R,3S,5S)-3-Amino-5-methylcyclohexyl)pyridin-3-yl)-3-((S)-1-cyclopropylethylamino)-5-fluoroquinoline-8-carboxamide] showed a pIC50 (Pim-1) of no less than 8.00, a pIC50 (Pim-3) of 7.30 to 8.00 and a pIC50 (Pim-2) of 5.00 to 6.00.
`CC(C)[C@H](C)Nc1cnc2c(C(=O)Nc3cnccc3[C@@H]3C[C@H](C)C[C@H](N)C3)ccc(F)c2c1` [Example 53, N-(4-((1R,3S,5S)-3-Amino-5-methylcyclohexyl)pyridin-3-yl)-5-fluoro-3-((S)-3-methylbutan-2-ylamino)quinoline-8-carboxamide] was tested, and the pIC50 (Pim-1) was no less than 8.00, the pIC50 (Pim-3) was no less than 8.00 and the pIC50 (Pim-2) was 6.00 to 7.00.
In the case of `CC(C)[C@@H](C)Nc1cnc2c(C(=O)Nc3cnccc3[C@@H]3C[C@H](C)C[C@H](N)C3)ccc(F)c2c1` [Example 54, N-(4-((1R,3S,5S)-3-amino-5-methylcyclohexyl)pyridin-3-yl)-5-fluoro-3-((R)-3-methylbutan-2-ylamino)quinoline-8-carboxamide], the pIC50 (Pim-1) was no less than 8.00, the pIC50 (Pim-3) was no less than 8.00 and the pIC50 (Pim-2) was 6.00 to 7.00.
Compound `CCCN(C)c1cnc2c(C(=O)Nc3cnccc3[C@@H]3C[C@H](C)C[C@H](N)C3)ccc(F)c2c1` [Example 55, N-(4-((1R,3S,5S)-3-Amino-5-methylcyclohexyl)pyridin-3-yl)-5-fluoro-3-(methyl(propyl)amino)quinoline-8-carboxamide] has a pIC50 (Pim-1) of no less than 8.00, a pIC50 (Pim-3) of no less than 8.00 and a pIC50 (Pim-2) of no less than 7.00.
Compound `CC(C)N(C)c1cnc2c(C(=O)Nc3cnccc3[C@@H]3C[C@H](C)C[C@H](N)C3)ccc(F)c2c1` [Example 56, N-(4-((1R,3S,5S)-3-Amino-5-methylcyclohexyl)pyridin-3-yl)-5-fluoro-3-(isopropyl(methyl)amino)quinoline-8-carboxamide] has a pIC50 (Pim-1) of no less than 8.00, a pIC50 (Pim-3) of no less than 8.00 and a pIC50 (Pim-2) of no less than 7.00.
With `CCC1CCCCN1c1cnc2c(C(=O)Nc3cnccc3[C@@H]3C[C@H](C)C[C@H](N)C3)ccc(F)c2c1` (stereo partly drawn) [Example 57, N-(4-((1R,3S,5S)-3-Amino-5-methylcyclohexyl)pyridin-3-yl)-3-(2-ethylpiperidin-1-yl)-5-fluoroquinoline-8-carboxamide] the pIC50 (Pim-1) was no less than 8.00, the pIC50 (Pim-3) was 7.30 to 8.00 and the pIC50 (Pim-2) was no less than 7.00.
For `C[C@@H]1C[C@H](N)C[C@H](c2ccncc2NC(=O)c2ccc(F)c3cc(N4CCCCC4C(F)F)cnc23)C1` (stereo partly drawn) [Example 58, N-(4-((1R,3S,5S)-3-Amino-5-methylcyclohexyl)pyridin-3-yl)-3-(2-(difluoromethyl)piperidin-1-yl)-5-fluoroquinoline-8-carboxamide], the pIC50 (Pim-1) was no less than 8.00, the pIC50 (Pim-3) was no less than 8.00 and the pIC50 (Pim-2) was no less than 7.00.
`C[C@@H]1C[C@H](N)C[C@H](c2ccncc2NC(=O)c2ccc(F)c3cc(-c4cc(F)cc5cccnc45)cnc23)C1` [Example 59, N-(4-((1R,3S,5S)-3-Amino-5-methylcyclohexyl)pyridin-3-yl)-5,6′-difluoro-3,8′-biquinoline-8-carboxamide] showed a pIC50 (Pim-1) of no less than 8.00, a pIC50 (Pim-3) of 7.30 to 8.00 and a pIC50 (Pim-2) of 5.00 to 6.00.
Compound `C[C@@H]1C[C@H](N)C[C@H](c2ccncc2NC(=O)c2ccc(F)c3cc(-c4ccc(F)c5cccnc45)cnc23)C1` [Example 60, N-(4-((1R,3S,5S)-3-Amino-5-methylcyclohexyl)pyridin-3-yl)-5,5′-difluoro-3,8′-biquinoline-8-carboxamide] has a pIC50 (Pim-1) of no less than 8.00, a pIC50 (Pim-3) of 7.30 to 8.00 and a pIC50 (Pim-2) of 5.00 to 6.00.
`C[C@@H]1C[C@H](N)C[C@H](c2ccncc2NC(=O)c2ccc(F)c3cc(-c4ccc(C(F)(F)F)nc4)cnc23)C1` [Example 61, N-(4-((1R,3S,5S)-3-Amino-5-methylcyclohexyl)pyridin-3-yl)-5-fluoro-3-(6-(trifluoromethyl)pyridin-3-yl)quinoline-8-carboxamide] showed a pIC50 (Pim-1) of no less than 8.00, a pIC50 (Pim-3) of 7.30 to 8.00 and a pIC50 (Pim-2) of 5.00 to 6.00.
`CCn1cc(-c2cnc3c(C(=O)Nc4cnccc4[C@@H]4C[C@H](C)C[C@H](N)C4)ccc(F)c3c2)cn1` [Example 62, N-(4-((1R,3S,5S)-3-Amino-5-methylcyclohexyl)pyridin-3-yl)-3-(1-ethyl-1H-pyrazol-4-yl)-5-fluoroquinoline-8-carboxamide] showed a pIC50 (Pim-1) of no less than 8.00, a pIC50 (Pim-3) of no less than 8.00 and a pIC50 (Pim-2) of 6.00 to 7.00.
For `Cc1nn(C)cc1-c1cnc2c(C(=O)Nc3cnccc3[C@@H]3C[C@H](C)C[C@H](N)C3)ccc(F)c2c1` [Example 63, N-(4-((1R,3S,5S)-3-Amino-5-methylcyclohexyl)pyridin-3-yl)-3-(1,3-dimethyl-1H-pyrazol-4-yl)-5-fluoroquinoline-8-carboxamide], the pIC50 (Pim-1) was no less than 8.00, the pIC50 (Pim-3) was no less than 8.00 and the pIC50 (Pim-2) was 6.00 to 7.00.
Compound `C[C@@H]1C[C@H](N)C[C@H](c2ccncc2NC(=O)c2ccc(F)c3cc(-c4cnn(C)c4)cnc23)C1` [Example 64, N-(4-((1R,3S,5S)-3-Amino-5-methylcyclohexyl)pyridin-3-yl)-5-fluoro-3-(1-methyl-1H-pyrazol-4-yl)quinoline-8-carboxamide] has a pIC50 (Pim-1) of no less than 8.00, a pIC50 (Pim-3) of no less than 8.00 and a pIC50 (Pim-2) of 6.00 to 7.00.
In the case of `Cc1n[nH]cc1-c1cnc2c(C(=O)Nc3cnccc3[C@@H]3C[C@H](C)C[C@H](N)C3)ccc(F)c2c1` [Example 65, N-(4-((1R,3S,5S)-3-amino-5-methylcyclohexyl)pyridin-3-yl)-5-fluoro-3-(3-methyl-1H-pyrazol-4-yl)quinoline-8-carboxamide], the pIC50 (Pim-1) was no less than 8.00, the pIC50 (Pim-3) was no less than 8.00 and the pIC50 (Pim-2) was 6.00 to 7.00.

From US9920032B2, “Heterocyclic compounds useful as pim kinase inhibitors” (Incyte Corporation, priority 2015, dated 2018)
